The values below come from ChEMBL document CHEMBL1909046, “DrugMatrix in vitro pharmacology data”.

Structures are written as SMILES.

One experiment concerns the target T1, Caspase-1 (Homo sapiens, UniProt P29466).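 Note: Caspase-1 enzyme inhibition assay with a peptide substrate; in other assays of this panel Not Active means under 50% inhibition at 10 µM.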
T1 sequence (P29466 whole entry): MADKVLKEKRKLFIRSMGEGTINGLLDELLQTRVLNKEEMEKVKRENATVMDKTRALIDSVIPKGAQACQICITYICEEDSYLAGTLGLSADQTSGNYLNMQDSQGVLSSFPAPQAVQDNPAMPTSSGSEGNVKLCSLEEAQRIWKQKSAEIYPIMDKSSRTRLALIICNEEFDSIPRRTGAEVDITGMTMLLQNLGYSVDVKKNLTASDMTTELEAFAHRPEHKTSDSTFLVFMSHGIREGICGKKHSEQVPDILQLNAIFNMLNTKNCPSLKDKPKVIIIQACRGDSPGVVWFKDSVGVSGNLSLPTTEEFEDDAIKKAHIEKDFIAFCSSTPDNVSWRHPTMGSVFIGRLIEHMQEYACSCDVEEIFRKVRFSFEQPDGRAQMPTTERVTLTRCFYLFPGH
Also on record: species or system Escherichia coli.

Experiment [1] in a line: DRUGMATRIX: Calcium Channel Type L, Phenylalkylamine radioligand binding (ligand: [3H] (-)-Desmethoxyverapamil (D-888)). In kind it is cell membranes, Rattus norvegicus, Wistar, Brain, Membrane. The settings on record: Not Active = under 50% inhibition at 10 µM.
Another experiment has as its target D(3) dopamine receptor (Homo sapiens, UniProt P35462). Kind of experiment: DRUGMATRIX: Dopamine D3 radioligand binding (ligand: [3H] Spiperone). In kind it is cell membranes, CHO, Membrane. The settings on record: for Ki: read-out: Ki.
Experiment [2] concerns the target T2, Muscarinic acetylcholine receptor M2 (Homo sapiens, UniProt P08172). Note: in other assays of this panel Not Active means under 50% inhibition at 10 µM.
T2 sequence (P08172 whole entry): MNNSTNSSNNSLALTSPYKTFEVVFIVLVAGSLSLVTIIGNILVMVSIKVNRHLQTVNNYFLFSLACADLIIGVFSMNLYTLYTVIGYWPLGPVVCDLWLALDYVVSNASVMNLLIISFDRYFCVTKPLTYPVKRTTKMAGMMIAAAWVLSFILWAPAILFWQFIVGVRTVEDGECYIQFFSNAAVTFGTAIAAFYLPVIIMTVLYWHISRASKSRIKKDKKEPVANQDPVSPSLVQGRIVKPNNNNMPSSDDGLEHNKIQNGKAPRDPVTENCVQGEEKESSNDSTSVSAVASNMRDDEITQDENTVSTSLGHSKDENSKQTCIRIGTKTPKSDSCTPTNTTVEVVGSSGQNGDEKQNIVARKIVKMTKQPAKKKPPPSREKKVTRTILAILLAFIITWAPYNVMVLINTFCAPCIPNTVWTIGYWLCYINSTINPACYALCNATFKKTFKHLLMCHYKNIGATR
In kind it is cell membranes, CHO-K1, Membrane. The settings on record: cho-k1.

The target in experiment [3] is T3, 5-hydroxytryptamine receptor 1A (Rattus norvegicus, UniProt P19327). Note: in other assays of this panel Not Active means under 50% inhibition at 10 µM.
T3 sequence (P19327 whole entry): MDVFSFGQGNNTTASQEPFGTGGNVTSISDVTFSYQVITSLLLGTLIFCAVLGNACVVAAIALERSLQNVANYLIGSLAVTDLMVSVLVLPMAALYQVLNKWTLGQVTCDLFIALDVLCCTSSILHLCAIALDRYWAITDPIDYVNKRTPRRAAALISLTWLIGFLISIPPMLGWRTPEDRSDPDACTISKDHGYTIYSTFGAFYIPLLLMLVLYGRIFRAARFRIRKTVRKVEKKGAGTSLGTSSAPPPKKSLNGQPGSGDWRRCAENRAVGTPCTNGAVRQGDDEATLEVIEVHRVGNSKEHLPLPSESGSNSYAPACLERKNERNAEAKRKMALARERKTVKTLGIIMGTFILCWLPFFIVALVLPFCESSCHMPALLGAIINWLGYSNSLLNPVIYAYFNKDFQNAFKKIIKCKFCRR
In kind it is cell membranes, CHO-K1, Membrane.

Sequence of D(3) dopamine receptor (P35462 whole entry): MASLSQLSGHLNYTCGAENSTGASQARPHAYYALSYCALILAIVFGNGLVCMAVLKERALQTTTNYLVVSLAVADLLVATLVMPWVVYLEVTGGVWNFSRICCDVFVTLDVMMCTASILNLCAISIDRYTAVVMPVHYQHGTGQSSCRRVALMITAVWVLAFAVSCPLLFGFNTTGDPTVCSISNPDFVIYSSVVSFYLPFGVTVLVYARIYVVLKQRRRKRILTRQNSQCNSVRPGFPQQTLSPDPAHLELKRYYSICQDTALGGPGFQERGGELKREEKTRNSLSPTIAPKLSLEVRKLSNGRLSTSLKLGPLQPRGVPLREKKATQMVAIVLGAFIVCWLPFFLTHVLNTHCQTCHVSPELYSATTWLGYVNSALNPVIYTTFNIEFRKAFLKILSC

Turning to `CCOC(=O)n1ccn(C)c1=S` [CARBIMAZOLE], the IC50 entry (at Caspase-1; in experiment [1]; on D(3) dopamine receptor (cho); in experiment [2]; in experiment [3] (cho-k1)) was “Not Active” each time. For the same molecule, the Ki (as a rule, a dissociation constant, usually derived from enzyme kinetics or from competition with a known ligand) in experiment [1] is given as “Not Active”.

`Oc1ccccc1O` [CATECHOL]: the IC50 entry (at Caspase-1; in experiment [1]; at D(3) dopamine receptor (cho); in experiment [2]; in experiment [3] (cho-k1)) was “Not Active” in each case. In addition, the Ki result in experiment [1] is “Not Active”.

Take `CO[C@@]1(NC(=O)CSCC#N)C(=O)N2C(C(=O)O)=C(CSc3nnnn3C)CS[C@@H]21` [CEFMETAZOLE]: the IC50 entry (at Caspase-1; in experiment [1]; on D(3) dopamine receptor (cho); in experiment [2]; in experiment [3] (cho-k1)) was “Not Active” throughout. The Ki entry in experiment [1] is “Not Active”.

Take `CN(C(=O)CCCOc1ccc2[nH]c(=O)ccc2c1)C1CCCCC1` [CILOSTAMIDE]: the IC50 entry (on Caspase-1; in experiment [1]; on D(3) dopamine receptor (cho); in experiment [2]; in experiment [3] (cho-k1)) was “Not Active” throughout. The Ki result in experiment [1] was “Not Active”.

As for `CC(C)(Oc1ccc(C2CC2(Cl)Cl)cc1)C(=O)O` (stereo unspecified) [CIPROFIBRATE], the 50% inhibitory concentration (IC50) result (against Caspase-1; in experiment [1]; on D(3) dopamine receptor (cho); in experiment [2]; in experiment [3] (cho-k1)) was “Not Active” throughout. Also, the Ki result in experiment [1] is reported as “Not Active”.

In the case of `Nc1nc(Cl)nc2c1ncn2[C@H]1C[C@H](O)[C@@H](CO)O1` [CLADRIBINE], the IC50 entry (on Caspase-1; in experiment [1]; at D(3) dopamine receptor (cho); in experiment [2]; in experiment [3] (cho-k1)) was “Not Active” throughout. In addition, in experiment [1], the Ki entry is “Not Active”.

Take `CC[C@H]1OC(=O)[C@H](C)[C@@H](O[C@H]2C[C@@](C)(OC)[C@@H](O)[C@H](C)O2)[C@H](C)[C@@H](O[C@@H]2O[C@H](C)C[C@H](N(C)C)[C@H]2O)[C@](C)(OC)C[C@@H](C)C(=O)[C@H](C)[C@@H](O)[C@]1(C)O` [CLARITHROMYCIN]: the 50% inhibitory concentration (IC50) entry (at Caspase-1; in experiment [1]; on D(3) dopamine receptor (cho); in experiment [2]; in experiment [3] (cho-k1)) was “Not Active” throughout. For the same molecule, in experiment [1], the Ki entry is on record as “Not Active”.

For the molecule `CCC[C@@H]1C[C@@H](C(=O)N[C@@H]([C@H]2O[C@H](SC)[C@H](O)[C@@H](O)[C@H]2O)[C@H](C)Cl)N(C)C1` [CLINDAMYCIN], the IC50 result (at Caspase-1; in experiment [1]; on D(3) dopamine receptor (cho); in experiment [2]; in experiment [3] (cho-k1)) was “Not Active” throughout. Moreover, the Ki entry in experiment [1] was “Not Active”.

Consider `O=C(O)c1cc(=O)c2c(OCC(O)COc3cccc4oc(C(=O)O)cc(=O)c34)cccc2o1` [CROMOLYN], for which the IC50 entry (against Caspase-1; in experiment [1]; at D(3) dopamine receptor (cho); in experiment [2]; in experiment [3] (cho-k1)) was “Not Active” each time. Further, the Ki entry in experiment [1] is reported as “Not Active”.

For the molecule `O=P1(N(CCCl)CCCl)NCCCO1` (stereo unspecified) [CYCLOPHOSPHAMIDE ANHYDROUS], the IC50 result (on Caspase-1; in experiment [1]; at D(3) dopamine receptor (cho); in experiment [2]; in experiment [3] (cho-k1)) was “Not Active” in each case. The Ki entry in experiment [1] is reported as “Not Active”.

On to `CC(=O)O[C@]1(C(C)=O)CC[C@H]2[C@@H]3C=C(Cl)C4=CC(=O)[C@@H]5C[C@@H]5[C@]4(C)[C@H]3CC[C@@]21C` [CYPROTERONE ACETATE], for which the IC50 result (on Caspase-1; in experiment [1]; on D(3) dopamine receptor (cho); in experiment [2]; in experiment [3] (cho-k1)) was “Not Active” each time. In addition, the Ki result in experiment [1] is given as “Not Active”.

For the molecule `Nc1nc(N)nc(NC2CC2)n1` [CYROMAZINE], the IC50 entry (at Caspase-1; in experiment [1]; on D(3) dopamine receptor (cho); in experiment [2]; in experiment [3] (cho-k1)) was “Not Active” throughout. Also, the Ki result in experiment [1] is “Not Active”.

As for `C#C[C@]1(O)CC[C@H]2[C@@H]3CCC4=Cc5oncc5C[C@]4(C)[C@H]3CC[C@@]21C` [DANAZOL], the IC50 (in general, the concentration that inhibits the measured activity by half) was “Not Active” against Caspase-1; 14.6 µM in experiment [1] (read-out: IC50); 28.9 µM on D(3) dopamine receptor (read-out: IC50); “Not Active” in experiment [2]; “Not Active” in experiment [3] (cho-k1). For the same molecule, the Ki in experiment [1] (read-out: Ki) stood at 14.2 µM; on D(3) dopamine receptor it was 9.8 µM.

As to `CCN[C@@H](C)Cc1cccc(C(F)(F)F)c1` [DEXFENFLURAMINE], the half-maximal inhibitory concentration (IC50) result was “Not Active” at Caspase-1; “Not Active” in experiment [1]; “Not Active” on D(3) dopamine receptor (cho); “Not Active” in experiment [2]; 3.4 µM in experiment [3] (read-out: IC50). Also, the Ki entry was “Not Active” in experiment [1] and 1.94 µM in experiment [3] (read-out: Ki).

Regarding `C[C@H](C(=O)O)c1cccc(C(=O)c2ccccc2)c1` [DEXKETOPROFEN], the IC50 result (against Caspase-1; in experiment [1]; at D(3) dopamine receptor (cho); in experiment [2]; in experiment [3] (cho-k1)) was “Not Active” throughout. Besides, the Ki result in experiment [1] is “Not Active”.

Take `CN1C(=O)CN=C(c2ccccc2)c2cc(Cl)ccc21` [DIAZEPAM]: the IC50 entry (against Caspase-1; in experiment [1]; at D(3) dopamine receptor (cho); in experiment [2]; in experiment [3] (cho-k1)) was “Not Active” in each case. For the same molecule, the Ki entry in experiment [1] is “Not Active”.

Consider `Cc1c(N(C)CS(=O)(=O)[O-])c(=O)n(-c2ccccc2)n1C.[Na+]` [DIPYRONE SODIUM], for which the IC50 entry (at Caspase-1; in experiment [1]; on D(3) dopamine receptor (cho); in experiment [2]; in experiment [3] (cho-k1)) was “Not Active” in each case. Further, the Ki result in experiment [1] is on record as “Not Active”.

For the molecule `CC(CCc1ccc(O)cc1)NCCc1ccc(O)c(O)c1` (stereo unspecified) [DOBUTAMINE], the IC50 result against Caspase-1 is “Not Active”; in experiment [1] it was “Not Active”; on D(3) dopamine receptor (read-out: IC50) it was 4.99 µM; in experiment [2] it was “Not Active”; in experiment [3] (cho-k1) it was “Not Active”. The Ki result in experiment [1] was “Not Active”; at D(3) dopamine receptor, 1.69 µM.

Turning to `CCn1cc(C(=O)O)c(=O)c2cc(F)c(N3CCNCC3)nc21` [ENOXACIN], the IC50 result (on Caspase-1; in experiment [1]; on D(3) dopamine receptor (cho); in experiment [2]; in experiment [3] (cho-k1)) was “Not Active” in each case. Also, the Ki entry in experiment [1] was “Not Active”.

With `CCC(=O)O[C@H]1[C@H](O[C@@H]2[C@@H](C)[C@H](O[C@H]3C[C@@](C)(OC)[C@@H](O)[C@H](C)O3)[C@@H](C)C(=O)O[C@H](CC)[C@@](C)(O)[C@H](O)[C@@H](C)C(=O)[C@H](C)C[C@@]2(C)O)O[C@H](C)C[C@@H]1N(C)C` [ERYTHROMYCIN PROPIONATE], the IC50 entry (at Caspase-1; in experiment [1]; at D(3) dopamine receptor (cho); in experiment [2]; in experiment [3] (cho-k1)) was “Not Active” throughout. Also, in experiment [1], the Ki result was “Not Active”.

Consider `C=C(CC)C(=O)c1ccc(OCC(=O)O)c(Cl)c1Cl` [ETHACRYNIC ACID], for which the IC50 result (against Caspase-1; in experiment [1]; on D(3) dopamine receptor (cho); in experiment [2]; in experiment [3] (cho-k1)) was “Not Active” in each case. The Ki entry in experiment [1] is recorded as “Not Active”.

For the molecule `C#C[C@]1(O)CC[C@H]2[C@@H]3CCc4cc(O)ccc4[C@H]3CC[C@@]21C` [ETHINYL ESTRADIOL], the IC50 entry at Caspase-1 was “Not Active”; in experiment [1] (read-out: IC50) it was 6.99 µM; on D(3) dopamine receptor (cho) it was “Not Active”; in experiment [2], “Not Active”; in experiment [3] (cho-k1) it was “Not Active”. The Ki in experiment [1] (read-out: Ki) turned out to be 6.79 µM.

Regarding `OCCO` [ETHYLENE GLYCOL], the half-inhibitory concentration (IC50) result (on Caspase-1; in experiment [1]; on D(3) dopamine receptor (cho); in experiment [2]; in experiment [3] (cho-k1)) was “Not Active” throughout. For the same molecule, in experiment [1], the Ki result was “Not Active”.
